Experimental data: patent publication EP0162413A2, “Polyamine for use as a medicine in the treatment of neoplasms” (MERRELL DOW PHARMACEUTICALS INC., priority 1984, dated 1985)

Experiments:
[1] = test system: Human Cervical Cancer (HeLa); assay: Growth of HeLa cells in culture (N,N'-bis(3-aminopropyl)-1,8-octanediamine); type: cell-based; conditions: 72 hours, 37°C
Description: (§1) HeLa cells and B16 melanoma cells were plated at a density of 1 x 10^5/plate (35 mm) and incubated overnight. Different concentrations of the compound in regular medium --were added and cell growth was determined after 72 hours of incubation at 37°C.

[2] = test system: B16 Melanoma; assay: Antitumor activity against B16 melanoma in mice, tumor weight; type: in vivo; conditions: day 1-10, tumor cells s.c., sacrificed on day 15
Description: (§2) 1 x 10^5 tumor cells/animal were inoculated s.c. on day 0 and the drug treatments were started on day 1. "N,N'-bis (3-aminopropyl)-1, 8-octanediamine was administered at different doses from day 1-10. The animals were sacrificed on day 15 and the tumors were dissected and weighed.

[3] = test system: L1210 Leukemia; assay: Antitumor activity against L1210 leukemia in mice, survival (N,N'-bis(3-aminopropyl)-1,8-octanediamine); type: in vivo
Description: Treatment Survival (Days) % T/C Control 7.5 ^± 0.5 Compound 25 mg/kg^* 16.0 ^± 1.5 213.3 6.26 mg/kg^** 27 ^± 3.0 360.0 1 x 10^5 L1210 leukemic cells/animal were inoculated i.p. on day 0 and drug treatments were started as follows: * N,N'-bis(3-aminopropyl)-1,8-octanediamine was administered i.p. at 25 mg/Kg/day. from day 1-7. ^** The compound was administered i.p. at 6.25 mg/kg 4 times a day, every three hours starting at 8:30 a.m. to 5:30 p.m. from days 3-7. [formula]

[4] = test system: Lewis Lung Carcinoma; assay: Antitumor activity against Lewis lung carcinoma in mice, tumor weight; type: in vivo; conditions: day 1-10, tumor cells s.c., sacrificed on day 15
Description: as §2

[5] = test system: Mouse Melanoma (B16) Cells; assay: Growth of B16 melanoma cells in culture (N,N'-bis(3-aminopropyl)-1,8-octanediamine); type: cell-based; conditions: 72 hours, 37°C
Description: as §1

[6] = test system: L1210 Leukemia; assay: Survival of mice with L1210 leukemia (norspermidine, DFMO); type: in vivo; conditions: Norspermidine i.p. 50 mg/kg/day day 1 to 7; DFMO 2% solution in drinking water (approximately 3 g/kg)
Description: (§3) 1 x 10^5 L1210 leukemic cells per animal were innoculated i.p. on day 0 and drug treatments were started on day 1. DFMO was administered as 2% solution in drinking water (approximately 3 g/kg based on fluid intake). Norspermidine was administered i.p. at 50 mg/kg/day from day 1 to 7. Polyamine concentrations were determined on cells collected from treated and control animals on day 4. ND: not detectable; [formula]

[7] = test system: Lewis Lung Tumor (3LL); assay: Growth of Lewis lung tumor (3LL) in mice (DFMO, norspermidine); type: in vivo; conditions: 3LL s.c.; Norspermidine i.p. 50 mg/kg/day day 1 to 14; DFMO 2% in drinking water; tumors weighed at end of 18 days
Description: 1 x 10^5 3LL cells per animal were injected s.c. in the intrascapular region of the mice on day 0. Drug treatments were started on day 1. DFMO was administered as a 2% solution in drinking water (approximately 3 g/kg based on fluid intake). Norspermidine was administered i.p. 50 mg/kg/day from day 1 to 14. At the end of 18 days, animals were sacrificed, tumors disected and weighed.

[8] = test system: HeLa Cells; assay: Polyamine levels of HeLa cells in culture (norspermidine); type: cell-based, Human
[9] = test system: HeLa Cells; assay: Growth and mitotic index of HeLa cells in culture (norspermidine); type: cell-based, Human; conditions: 72 hours, 37°C
[10] = test system: L1210 Leukemia; assay: Polyamine levels of L1210 leukemia cells collected from treated mice; type: in vivo; conditions: L1210 cells collected on day 4; Norspermidine i.p. 50 mg/kg/day; DFMO 2% in drinking water
Description: as §3

[11] = test system: B16 Melanoma; assay: Survival of B16 melanoma bearing mice (DFMO, norspermidine); type: in vivo; conditions: B16 i.p.; Norspermidine i.p. 50 mg/kg/day day 1 to 7; DFMO 2% in drinking water
Description: 1 x 10^5 B16 melanoma cells per animal were injected i.p. on day 0. Drug treatments were started on day 1. DFMO was administered as a 2% solution in drinking water (approximately 3 g/kg based on fluid intake). Norspermidine was administered i.p. at 50 mg/kg/day starting day 1 to 7. [formula]

NCCCNCCCCCCCCNCCCN [N,N'-bis(3-aminopropyl)-1,8-octanediamine]
HeLa Cells Cell No. x 10^5 ([1]; 0.001 mM): 7.56 x 10^5 | HeLa Cells Cell No. x 10^5 ([1]; 0.01 mM): 5.9 x 10^5 | HeLa Cells Cell No. x 10^5 ([1]; 0.1 mM): 4.56 x 10^5 | HeLa Cells Cell No. x 10^5 ([1]; 1.0 mM): 2.82 x 10^5 | inhibition at 1 µM ([1]; Homo sapiens, HeLa, 0.001 mM, read-out: HeLa Cells % Inh. of Cell Growth): 39% | inhibition at 10 µM ([1]; Homo sapiens, HeLa, 0.01 mM, read-out: HeLa Cells % Inh. of Cell Growth): 50% | inhibition at 100 µM ([1]; Homo sapiens, HeLa, 0.1 mM, read-out: HeLa Cells % Inh. of Cell Growth): 62% | inhibition at 1000 µM ([1]; Homo sapiens, HeLa, 1.0 mM, read-out: HeLa Cells % Inh. of Cell Growth): 76% | B16 Melanoma % Inh. ([2]; 6.25 mg/kg): 66% | B16 Melanoma Tumor Weight (gms) ([2]; 6.25 mg/kg): 1.68 ± 0.37 gms | B16 Melanoma % Inh. ([2]; 12.5 mg/kg): 81% | B16 Melanoma Tumor Weight (gms) ([2]; 12.5 mg/kg): 0.95 ± 0.29 gms | % T/C ([3]; 6.26 mg/kg (footnote: i.p. at 6.25 mg/kg 4 times a day, every three hours, days 3-7)): 360.0% | % T/C ([3]; 25 mg/kg: i.p. at 25 mg/Kg/day from day 1-7): 213.3% | Lewis Lung Carcinoma % Inh. ([4]; 6.25 mg/kg): 37% | Lewis Lung Carcinoma Tumor Weight (gms) ([4]; 6.25 mg/kg): 3.10 ± 0.39 gms | Lewis Lung Carcinoma % Inh. ([4]; 12.5 mg/kg): 61% | Lewis Lung Carcinoma Tumor Weight (gms) ([4]; 12.5 mg/kg): 1.94 ± 0.24 gms | B16 Melanoma Cell No. x 10^6 ([5]; 0.001 mM): 14.5 x 10^6 | B16 Melanoma Cell No. x 10^6 ([5]; 0.01 mM): 7.40 x 10^6 | B16 Melanoma Cell No. x 10^6 ([5]; 0.1 mM): 7.42 x 10^6 | B16 Melanoma Cell No. x 10^6 ([5]; 1.0 mM): 0 x 10^6 | inhibition at 1 µM ([5]; Mus musculus, B16, 0.001 mM, read-out: B16 Melanoma % Inh. of Cell Growth): 16% | inhibition at 10 µM ([5]; Mus musculus, B16, 0.01 mM, read-out: B16 Melanoma % Inh. of Cell Growth): 57% | inhibition at 100 µM ([5]; Mus musculus, B16, 0.1 mM, read-out: B16 Melanoma % Inh. of Cell Growth): 57% | inhibition at 1000 µM ([5]; Mus musculus, B16, 1.0 mM, read-out: B16 Melanoma % Inh. of Cell Growth): 100%

NCCCNCCCN [Norspermidine, norspermidine]
% T/C [6]: 147% | Survival [6]: 11.0 days | % Inhibition [7]: 32% | Tumor Weight (gr) [7]: 3.50 gr | Polyamine Concentration Norspermidine ([8]; 0.005 mM): 5.31 n·moles/10^6 cells | Polyamine Concentration Putriscine ([8]; 0.005 mM): 0.026 n·moles/10^6 cells | Polyamine Concentration Spermidine ([8]; 0.005 mM): 0.849 n·moles/10^6 cells | Polyamine Concentration Spermine ([8]; 0.005 mM): 0.637 n·moles/10^6 cells | Polyamine Concentration Norspermidine ([8]; 0.05 mM): 4.30 n·moles/10^6 cells | Polyamine Concentration Spermidine ([8]; 0.05 mM): 0.433 n·moles/10^6 cells | Polyamine Concentration Spermine ([8]; 0.05 mM): 0.452 n·moles/10^6 cells | Polyamine Concentration Norspermidine ([8]; 0.5 mM): 6.32 n·moles/10^6 cells | Polyamine Concentration Spermidine ([8]; 0.5 mM): 0.481 n·moles/10^6 cells | Polyamine Concentration Spermine ([8]; 0.5 mM): 0.441 n·moles/10^6 cells | Cell No. x 10^6 ([9]; 0.005 mM): 0.70 x 10^6 | Mitotic Index ([9]; 0.005 mM): 74.0 | Cell No. x 10^6 ([9]; 0.05 mM): 0.64 x 10^6 | Mitotic Index ([9]; 0.05 mM): 76.7 | Cell No. x 10^6 ([9]; 0.5 mM): 0.70 x 10^6 | Mitotic Index ([9]; 0.5 mM): 71.0 | inhibition at 5 µM ([9]; Homo sapiens, HeLa, 0.005 mM, read-out: % Inhibition of Cell Growth): 61% | inhibition at 50 µM ([9]; Homo sapiens, HeLa, 0.05 mM, read-out: % Inhibition of Cell Growth): 65% | inhibition at 500 µM ([9]; Homo sapiens, HeLa, 0.5 mM, read-out: % Inhibition of Cell Growth): 61% | Polyamine Concentration Spermidine [10]: 0.69 n·moles/10^6 cells | Polyamine Concentration Spermine [10]: 0.77 n·moles/10^6 cells | % T/C [11]: 133% | Survival [11]: 18.0 days

NCCC[C@](N)(C(=O)O)C(F)F [DFMO, α-difluoromethyl ornithine, reference compound]
% T/C [6]: 107% | Survival [6]: 8.0 days | % Inhibition [7]: 4% | Tumor Weight (gr) [7]: 4.92 gr | Polyamine Concentration Putrescine [10]: 0.015 n·moles/10^6 cells | Polyamine Concentration Spermidine [10]: 0.84 n·moles/10^6 cells | Polyamine Concentration Spermine [10]: 1.18 n·moles/10^6 cells | % T/C [11]: 129% | Survival [11]: 17.5 days
